Target: DNA gyrase (Escherichia coli)
Assay: The inhibitory activity was measured for the supercoiling activity of DNA gyrase isolated from Escherichia coli K-12 C600.

Row | IC50 [nM] | SMILES
1 | 666 | NC1CCN(c2c(F)cc3c(=O)c(C(=O)O)c4scc5n4c3c2OC5)C1 (stereo unspecified)
2 | 727 | CN1CCN(c2c(F)cc3c(=O)c(C(=O)O)c4scc5n4c3c2OC5)CC1
3 | 929 | O=C(O)c1c(=O)c2cc(F)c(N3CCC(O)C3)c3c2n2c(csc12)CO3 (stereo unspecified)
4 | 2580 | O=C(O)c1c(=O)c2cc(F)c(N3CCCC3)c3c2n2c(csc12)CO3

Continued, compound first:

Row | SMILES | IC50 [nM]
5 | O=C(O)c1c(=O)c2cc(F)c(N3CCNCC3)c3c2n2c(csc12)CO3 | 452
6 | CC1COc2c(N3CCNCC3)c(F)cc3c(=O)c(C(=O)O)cn1c23 (stereo unspecified) | 1690

From BindingDB's records for doi:10.1021/jm00079a011 (Kanebo, 1992)
